Patent publication US10059717B2, “Urea compounds containing 3,4-dihydropyrimido[4,5-D]pyrimidin-2(1H)-one skeleton as protein kinase inhibitors” (KOREA INSTITUTE OF SCIENCE AND TECHNOLOGY, priority 2016, dated 2018)

Columns and labels:
Experiment in all cases: Kinase panel biochemical assay
Settings in all cases: 1 μM single concentration, read-out: % residual enzyme activity
[1] = biological target: GLK/MAP4K3 (Homo sapiens, UniProt Q8IVH8)
Description: (§1) In order to measure the protein kinase inhibitory activity (% inhibition) of the compounds of the present invention, biochemical assays were performed on the full kinase panel listed in the following Table 1.
(§2) As an test compound, 1-(3-(7-((6-(4-ethylpiperazine-1-carbonyl)pyridin-3-yl)amino)-1-methyl-2-oxo-1,4-dihydropyrimido[4,5-d]pyrimidin-3(2H)-yl)-4-methylphenyl)-3-(2-methoxyphenyl)urea (Compound No. 14) was used. The kinase inhibitory efficacy was measured upon treatment with a 1 μM single concentration of the test compound to calculate % residual enzyme activity value.
(§3) ABL1, FGFR2, TAOK2/TAO1, EPHA5, EPHB2, EPHB3, RET, LYN B, EPHA2, FRK/PTK5, EPHA8, LCK, EPHB4, FYN, KHS/MAP4K5, DDR1, EPHA3, P38a/MAPK14, EPHA4, FMS, EPHB1, HCK, FGFR1, ABL2/ARG, EPHA6, c-Src, ACK1, FLT4NEGFR3, ERBB4/HER4, DDR2, KDRNEGFR2, LYN, ZAK/MLTK, YES/YES1, BLK, FGR, MLCK2/MYLK2, TAOK1, BMX/ETK, BTK, EPHA1, JAK1, P38b/MAPK11, TIE2/TEK, FLT1NEGFR1, TXK, SRMS, RAF1, SIK1, MLK3/MAP3K11, PEAK1, TRKA, EPHA7, GLK/MAP4K3, MLK2/MAP3K10, TEC, CSK, TRKC, FES/FPS, SIK2, FGFR3, BRK, YSK4/MAP3K19, ARAF, PDGFRb, TNK1, GCK/MAP4K2, PDGFRa, TNIK, TAK1, ERBB2/HER2, LIMK1, HIPK4, FER, EGFR, JAK2, HPK1/MAP4K1, TRKB, RIPK3, LOK/STK10, LIMK2, MLK1/MAP3K9, BRAF, MEKK3, MEK5, STK32B/YANK2, FGFR4, MEKK2, SLK/STK2, FLT3, PKAcg, TAOK3/JIK, TYRO3/SKY, SIK3, IR, LRRK2, PYK2, NEK11, p70S6K/RPS6KB1, LATS2.

[2] = biological target: RET (Homo sapiens, UniProt P07949)
Description: as §1, §2, §3

[3] = biological target: CSK (Homo sapiens, UniProt P41240)
Description: as §1, §2, §3

[4] = biological target: SRMS (Homo sapiens, UniProt Q9H3Y6)
Description: as §1, §2, §3

[5] = biological target: NEK11 (Homo sapiens, UniProt Q8NG66)
Description: as §1, §2, §3

[6] = biological target: FMS (Homo sapiens, UniProt P07333)
Description: as §1, §2, §3

[7] = biological target: TRKB (Homo sapiens, UniProt Q16620)
Description: as §1, §2, §3

[8] = biological target: ERBB2/HER2 (Homo sapiens, UniProt P04626)
Sequence of ERBB2/HER2 (P04626 23-1255): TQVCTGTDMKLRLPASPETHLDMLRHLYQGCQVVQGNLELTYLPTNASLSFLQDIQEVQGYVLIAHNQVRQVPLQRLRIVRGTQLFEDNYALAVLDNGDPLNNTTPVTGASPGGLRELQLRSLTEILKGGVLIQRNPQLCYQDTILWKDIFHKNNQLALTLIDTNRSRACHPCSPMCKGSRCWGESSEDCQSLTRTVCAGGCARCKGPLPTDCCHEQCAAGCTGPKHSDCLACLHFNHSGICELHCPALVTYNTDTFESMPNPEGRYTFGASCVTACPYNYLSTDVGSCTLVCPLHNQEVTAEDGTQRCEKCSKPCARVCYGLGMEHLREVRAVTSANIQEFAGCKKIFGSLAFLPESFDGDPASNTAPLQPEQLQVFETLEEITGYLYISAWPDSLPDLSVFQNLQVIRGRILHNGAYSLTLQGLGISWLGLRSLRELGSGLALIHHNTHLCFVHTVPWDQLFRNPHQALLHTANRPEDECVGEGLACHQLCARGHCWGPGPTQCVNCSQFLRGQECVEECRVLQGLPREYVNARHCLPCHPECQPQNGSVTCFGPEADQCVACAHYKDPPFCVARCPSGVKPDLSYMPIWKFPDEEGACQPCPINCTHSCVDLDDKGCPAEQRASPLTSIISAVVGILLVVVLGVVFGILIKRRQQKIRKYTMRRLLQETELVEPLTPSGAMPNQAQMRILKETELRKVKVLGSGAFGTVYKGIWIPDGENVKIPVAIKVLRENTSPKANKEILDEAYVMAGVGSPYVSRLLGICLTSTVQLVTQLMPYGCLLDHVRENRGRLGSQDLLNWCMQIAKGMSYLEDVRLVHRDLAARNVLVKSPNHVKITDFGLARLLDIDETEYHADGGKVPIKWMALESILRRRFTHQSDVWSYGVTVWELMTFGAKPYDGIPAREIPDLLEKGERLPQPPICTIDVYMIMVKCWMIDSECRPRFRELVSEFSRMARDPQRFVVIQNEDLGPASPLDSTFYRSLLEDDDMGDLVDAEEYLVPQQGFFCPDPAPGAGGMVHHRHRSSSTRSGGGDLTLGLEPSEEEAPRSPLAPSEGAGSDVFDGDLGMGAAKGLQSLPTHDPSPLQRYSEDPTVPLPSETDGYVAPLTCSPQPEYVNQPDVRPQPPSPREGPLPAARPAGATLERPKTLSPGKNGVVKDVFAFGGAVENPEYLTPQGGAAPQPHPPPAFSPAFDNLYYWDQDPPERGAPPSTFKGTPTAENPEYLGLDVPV
Description: as §1, §2, §3

[9] = biological target: BTK (Homo sapiens, UniProt Q06187)
Description: as §1, §2, §3

[10] = biological target: TIE2/TEK (Homo sapiens, UniProt Q02763)
Description: as §1, §2, §3

[11] = biological target: ABL1 (Homo sapiens, UniProt P00519)
Description: as §1, §2, §3

[12] = biological target: MLK2/MAP3K10 (Homo sapiens, UniProt Q02779)
Description: as §1, §2, §3

[13] = biological target: JAK2 (Homo sapiens, UniProt O60674)
Sequence of JAK2 (O60674 whole entry): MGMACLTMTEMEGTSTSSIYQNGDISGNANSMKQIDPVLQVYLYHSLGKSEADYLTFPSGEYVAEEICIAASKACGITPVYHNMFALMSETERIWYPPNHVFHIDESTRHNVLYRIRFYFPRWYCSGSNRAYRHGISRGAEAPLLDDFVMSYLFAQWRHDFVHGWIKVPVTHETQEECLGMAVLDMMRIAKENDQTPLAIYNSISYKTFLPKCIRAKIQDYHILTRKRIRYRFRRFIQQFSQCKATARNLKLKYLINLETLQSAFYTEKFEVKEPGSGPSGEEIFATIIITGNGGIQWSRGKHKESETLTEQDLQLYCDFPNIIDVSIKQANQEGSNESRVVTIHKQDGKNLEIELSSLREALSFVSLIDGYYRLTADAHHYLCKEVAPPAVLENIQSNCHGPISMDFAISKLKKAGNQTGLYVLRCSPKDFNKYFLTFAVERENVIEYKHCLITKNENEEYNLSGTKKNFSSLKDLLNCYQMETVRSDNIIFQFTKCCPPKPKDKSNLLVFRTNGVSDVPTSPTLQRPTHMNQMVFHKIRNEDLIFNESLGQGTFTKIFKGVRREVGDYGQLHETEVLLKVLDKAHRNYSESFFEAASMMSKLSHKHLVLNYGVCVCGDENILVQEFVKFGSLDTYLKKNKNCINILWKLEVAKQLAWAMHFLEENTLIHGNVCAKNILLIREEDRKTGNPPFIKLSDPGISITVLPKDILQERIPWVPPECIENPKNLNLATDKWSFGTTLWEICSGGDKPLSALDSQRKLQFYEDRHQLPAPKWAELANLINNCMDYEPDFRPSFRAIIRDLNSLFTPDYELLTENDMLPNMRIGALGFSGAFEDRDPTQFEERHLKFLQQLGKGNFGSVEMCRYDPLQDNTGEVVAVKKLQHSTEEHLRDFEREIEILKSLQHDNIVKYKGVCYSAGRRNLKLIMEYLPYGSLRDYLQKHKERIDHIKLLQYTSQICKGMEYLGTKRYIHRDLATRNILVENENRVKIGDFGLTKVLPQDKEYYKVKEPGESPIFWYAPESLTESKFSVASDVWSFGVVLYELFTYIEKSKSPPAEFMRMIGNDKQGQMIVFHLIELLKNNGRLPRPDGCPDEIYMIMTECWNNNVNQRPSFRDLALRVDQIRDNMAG
Description: as §1, §2, §3

[14] = biological target: FER (Homo sapiens, UniProt P16591)
Description: as §1, §2, §3

[15] = biological target: PKAcg (Homo sapiens, UniProt P22612)
Sequence of PKAcg (P22612 whole entry): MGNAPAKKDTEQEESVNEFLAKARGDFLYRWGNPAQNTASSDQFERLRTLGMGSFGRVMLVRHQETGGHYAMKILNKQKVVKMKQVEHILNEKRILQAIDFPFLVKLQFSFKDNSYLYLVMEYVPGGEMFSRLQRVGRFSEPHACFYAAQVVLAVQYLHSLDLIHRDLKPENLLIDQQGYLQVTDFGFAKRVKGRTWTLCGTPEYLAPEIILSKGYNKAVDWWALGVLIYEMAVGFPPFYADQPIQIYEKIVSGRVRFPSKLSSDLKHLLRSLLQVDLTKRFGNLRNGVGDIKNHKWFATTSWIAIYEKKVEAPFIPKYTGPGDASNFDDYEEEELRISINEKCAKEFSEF
Description: as §1, §2, §3

[16] = biological target: TYRO3/SKY (Homo sapiens, UniProt Q06418)
Description: as §1, §2, §3

[17] = biological target: PYK2 (Homo sapiens, UniProt Q14289)
Description: as §1, §2, §3

[18] = biological target: EPHA6 (Homo sapiens, UniProt Q9UF33)
Description: as §1, §2, §3

[19] = biological target: MLK1/MAP3K9 (Homo sapiens, UniProt P80192)
Description: as §1, §2, §3

[20] = biological target: LYN (Homo sapiens, UniProt P07948)
Description: as §1, §2, §3

[21] = biological target: FLT1NEGFR1 (Homo sapiens, UniProt P17948)
Description: as §1, §2, §3

[22] = biological target: TAOK1 (Homo sapiens, UniProt Q7L7X3)
Description: as §1, §2, §3

[23] = biological target: TNIK (Homo sapiens, UniProt Q9UKE5)
Sequence of TNIK (Q9UKE5 whole entry): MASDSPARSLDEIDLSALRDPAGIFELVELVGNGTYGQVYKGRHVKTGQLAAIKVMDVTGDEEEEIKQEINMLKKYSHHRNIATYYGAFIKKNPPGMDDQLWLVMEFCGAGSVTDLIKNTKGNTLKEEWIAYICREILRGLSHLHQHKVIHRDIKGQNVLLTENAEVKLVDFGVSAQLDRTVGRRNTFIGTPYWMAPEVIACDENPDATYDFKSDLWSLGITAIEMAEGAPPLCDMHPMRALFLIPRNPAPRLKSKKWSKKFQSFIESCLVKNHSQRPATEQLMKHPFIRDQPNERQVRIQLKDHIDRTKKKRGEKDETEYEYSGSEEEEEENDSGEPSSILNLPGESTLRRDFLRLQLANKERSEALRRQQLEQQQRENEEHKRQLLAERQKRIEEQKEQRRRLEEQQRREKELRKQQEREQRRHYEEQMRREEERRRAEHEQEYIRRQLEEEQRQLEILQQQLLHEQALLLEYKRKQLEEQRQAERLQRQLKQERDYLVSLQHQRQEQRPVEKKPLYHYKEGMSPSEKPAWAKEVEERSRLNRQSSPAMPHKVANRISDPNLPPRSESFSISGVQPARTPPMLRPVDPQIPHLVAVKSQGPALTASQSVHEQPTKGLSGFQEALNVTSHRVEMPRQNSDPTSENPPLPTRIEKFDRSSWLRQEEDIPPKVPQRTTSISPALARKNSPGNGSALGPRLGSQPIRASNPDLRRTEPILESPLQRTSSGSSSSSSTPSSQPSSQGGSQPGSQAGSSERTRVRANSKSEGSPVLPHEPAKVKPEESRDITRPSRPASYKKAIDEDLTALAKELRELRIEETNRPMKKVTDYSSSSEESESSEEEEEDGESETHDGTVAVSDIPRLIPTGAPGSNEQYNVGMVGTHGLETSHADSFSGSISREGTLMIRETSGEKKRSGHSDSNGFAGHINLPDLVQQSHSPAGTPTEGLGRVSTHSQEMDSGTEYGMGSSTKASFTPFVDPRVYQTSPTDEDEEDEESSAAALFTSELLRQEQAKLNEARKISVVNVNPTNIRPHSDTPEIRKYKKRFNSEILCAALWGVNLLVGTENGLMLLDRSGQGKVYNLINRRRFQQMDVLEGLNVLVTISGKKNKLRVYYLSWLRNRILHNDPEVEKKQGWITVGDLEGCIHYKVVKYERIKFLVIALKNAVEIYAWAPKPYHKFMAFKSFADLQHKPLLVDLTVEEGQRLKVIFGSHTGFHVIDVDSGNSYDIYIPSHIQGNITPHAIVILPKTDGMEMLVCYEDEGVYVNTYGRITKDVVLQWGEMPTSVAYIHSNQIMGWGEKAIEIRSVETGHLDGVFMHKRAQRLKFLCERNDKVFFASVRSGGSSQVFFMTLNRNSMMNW
Description: as §1, §2, §3

[24] = biological target: FYN (Homo sapiens, UniProt P06241)
Description: as §1, §2, §3

[25] = biological target: LIMK2 (Homo sapiens, UniProt P53671)
Description: as §1, §2, §3

[26] = biological target: LRRK2 (Homo sapiens, UniProt Q5S007)
Description: as §1, §2, §3

[27] = biological target: MEKK3 (Homo sapiens, UniProt Q99759)
Description: as §1, §2, §3

[28] = biological target: LYN B (Homo sapiens, UniProt P07948)
Sequence of LYN B (P07948 1-491 isoform P07948-2): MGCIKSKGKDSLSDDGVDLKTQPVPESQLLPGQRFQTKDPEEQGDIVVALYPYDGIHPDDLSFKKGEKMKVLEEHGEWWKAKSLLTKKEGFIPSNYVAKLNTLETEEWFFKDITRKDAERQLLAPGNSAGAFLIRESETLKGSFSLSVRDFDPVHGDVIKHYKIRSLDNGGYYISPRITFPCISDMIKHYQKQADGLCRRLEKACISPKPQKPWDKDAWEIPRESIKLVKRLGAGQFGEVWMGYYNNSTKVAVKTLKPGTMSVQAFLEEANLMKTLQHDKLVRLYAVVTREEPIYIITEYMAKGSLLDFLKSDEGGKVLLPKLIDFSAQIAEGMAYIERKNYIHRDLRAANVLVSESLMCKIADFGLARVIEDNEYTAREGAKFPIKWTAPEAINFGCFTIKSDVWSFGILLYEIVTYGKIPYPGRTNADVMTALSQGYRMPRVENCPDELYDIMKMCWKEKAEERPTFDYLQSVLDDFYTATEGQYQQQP
Description: as §1, §2, §3

[29] = biological target: EPHA7 (Homo sapiens, UniProt Q15375)
Description: as §1, §2, §3

[30] = biological target: TXK (Homo sapiens, UniProt P42681)
Sequence of TXK (P42681 whole entry): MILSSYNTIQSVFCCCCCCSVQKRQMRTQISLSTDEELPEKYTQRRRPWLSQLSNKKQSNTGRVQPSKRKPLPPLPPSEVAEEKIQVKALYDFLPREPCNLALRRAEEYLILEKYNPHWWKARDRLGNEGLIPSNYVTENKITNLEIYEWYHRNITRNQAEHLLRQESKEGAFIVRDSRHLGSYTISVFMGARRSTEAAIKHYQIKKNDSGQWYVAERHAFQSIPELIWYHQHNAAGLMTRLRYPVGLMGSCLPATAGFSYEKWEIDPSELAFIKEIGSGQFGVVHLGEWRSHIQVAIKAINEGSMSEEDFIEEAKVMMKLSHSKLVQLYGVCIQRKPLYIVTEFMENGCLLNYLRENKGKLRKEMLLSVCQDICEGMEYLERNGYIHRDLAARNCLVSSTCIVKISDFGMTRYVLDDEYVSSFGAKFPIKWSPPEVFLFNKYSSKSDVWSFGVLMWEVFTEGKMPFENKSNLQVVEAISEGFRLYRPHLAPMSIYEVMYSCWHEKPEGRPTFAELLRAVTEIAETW
Description: as §1, §2, §3

[31] = biological target: GCK/MAP4K2 (Homo sapiens, UniProt Q12851)
Description: as §1, §2, §3

remaining activity at 1 µM [1]: ≤ 30% | remaining activity at 1 µM [2]: ≤ 30% | remaining activity at 1 µM [3]: ≤ 30% | remaining activity at 1 µM [4]: ≤ 30% | remaining activity at 1 µM [5]: ≤ 30% | remaining activity at 1 µM [6]: ≤ 30% | remaining activity at 1 µM [7]: ≤ 30% | remaining activity at 1 µM [8]: ≤ 30% | remaining activity at 1 µM [9]: ≤ 30% | remaining activity at 1 µM [10]: ≤ 30% | remaining activity at 1 µM [11]: ≤ 30% | remaining activity at 1 µM [12]: ≤ 30% | remaining activity at 1 µM [13]: ≤ 30% | remaining activity at 1 µM [14]: ≤ 30% | remaining activity at 1 µM [15]: ≤ 30% | remaining activity at 1 µM [16]: ≤ 30% | remaining activity at 1 µM [17]: ≤ 30% | remaining activity at 1 µM [18]: ≤ 30% | remaining activity at 1 µM [19]: ≤ 30% | remaining activity at 1 µM [20]: ≤ 30% | remaining activity at 1 µM [21]: ≤ 30% | remaining activity at 1 µM [22]: ≤ 30% | remaining activity at 1 µM [23]: ≤ 30% | remaining activity at 1 µM [24]: ≤ 30% | remaining activity at 1 µM [25]: ≤ 30% | remaining activity at 1 µM [26]: ≤ 30% | remaining activity at 1 µM [27]: ≤ 30% | remaining activity at 1 µM [28]: ≤ 30% | remaining activity at 1 µM [29]: ≤ 30% | remaining activity at 1 µM [30]: ≤ 30% | remaining activity at 1 µM [31]: ≤ 30%
SMILES: CCN1CCN(C(=O)c2ccc(Nc3ncc4c(n3)N(C)C(=O)N(c3cc(NC(=O)Nc5ccccc5OC)ccc3C)C4)cn2)CC1 [Compound No. 14, 1-(3-(7-((6-(4-ethylpiperazin-1-carbonyl)pyridin-3-yl)amino)-1-methyl-2-oxo-1,4-dihydropyrimido[4,5-d]pyrimidin-3(2H)-yl)-4-methylphenyl)-3-(2-methoxyphenyl)urea]
